# Test results taken from ChEMBL document CHEMBL3885881, “DrugMatrix”.
# Species: Rattus norvegicus
# Assay: DrugMatrix - Regimen: Daily Repeat
# Type: toxicity, organism-based, Sprague-Dawley
# Set-up: regimen Daily Repeat, gender Male, age 6-8 weeks
# Conditions: in vivo, po, route oral GAVAGE, vehicle 100 % WATER; for ABSOLUTE BASOPHIL / ABSOLUTE EOSINOPHIL / ABSOLUTE LYMPHOCYTE / ABSOLUTE MONOCYTE / ABSOLUTE SEGMENTED NEUTROPHIL / BASOPHIL / EOSINOPHIL / ERYTHROCYTE COUNT / HEMATOCRIT / HEMOGLOBIN / LEUKOCYTE COUNT / LYMPHOCYTE / MEAN CORPUSCULAR HEMOGLOBIN / MEAN CORPUSCULAR HEMOGLOBIN CONCENTRATION / MEAN CORPUSCULAR VOLUME / MONOCYTE / NEUTROPHIL / NUCLEATED RED BLOOD CELLS / PLATELET COUNT: tissue Blood; for ALANINE AMINOTRANSFERASE / ALBUMIN / ALKALINE PHOSPHATASE / ASPARTATE AMINOTRANSFERASE / BLOOD UREA NITROGEN / CARBON DIOXIDE / CHLORIDE / CHOLESTEROL / CREATINE PHOSPHOKINASE / CREATININE / GLUCOSE / LACTATE DEHYDROGENASE / LIPASE / PHOSPHORUS / POTASSIUM / SODIUM / TOTAL BILIRUBIN / TOTAL PROTEIN / URIC ACID: tissue Plasma
# [1] = 0 mg/kg, 72 h, dose level Control, time 3 day
# [2] = 0 mg/kg, 120 h, dose level Control, time 5 day
# [3] = 50 mg/kg, 72 h, dose level Low, time 3 day
smiles,measurement,setting,value
Cc1ncc([N+](=O)[O-])n1CCO [METRONIDAZOLE],ABSOLUTE BASOPHIL,[1],0 CELLS/uL
same,ABSOLUTE EOSINOPHIL,[1],86.33 CELLS/uL
same,ABSOLUTE LYMPHOCYTE,[1],12090.17 CELLS/uL
same,ABSOLUTE MONOCYTE,[1],166.67 CELLS/uL
same,ABSOLUTE SEGMENTED NEUTROPHIL,[1],1090.17 CELLS/uL
same,BASOPHIL,[1],0%
same,EOSINOPHIL,[1],0.67%
same,ERYTHROCYTE COUNT,[1],5.57 x10E6/uL
same,HEMATOCRIT,[1],35.33%
same,HEMOGLOBIN,[1],13.83 G/DL
same,LEUKOCYTE COUNT,[1],13.43 x10E3/uL
same,LYMPHOCYTE,[1],89.83%
same,MEAN CORPUSCULAR HEMOGLOBIN,[1],24.88 pg
same,MEAN CORPUSCULAR HEMOGLOBIN CONCENTRATION,[1],39.15 G/DL
same,MEAN CORPUSCULAR VOLUME,[1],63.52 fL
same,MONOCYTE,[1],1.17%
same,NEUTROPHIL,[1],8.33%
same,NUCLEATED RED BLOOD CELLS,[1],0 /100WBC
same,PLATELET COUNT,[1],1181.33 x10E3/uL
same,ALANINE AMINOTRANSFERASE,[1],48.33 u/L
same,ALBUMIN,[1],4.1 G/DL
same,ALKALINE PHOSPHATASE,[1],395 u/L
same,ASPARTATE AMINOTRANSFERASE,[1],81.83 u/L
same,BLOOD UREA NITROGEN,[1],15.83 mg/dL
same,CARBON DIOXIDE,[1],24.17 mmol/L
same,CHLORIDE,[1],103.83 MEQ/L
same,CHOLESTEROL,[1],63.67 mg/dL
same,CREATINE PHOSPHOKINASE,[1],372.83 u/L
same,CREATININE,[1],0.18 mg/dL
same,GLUCOSE,[1],173.83 mg/dL
same,LACTATE DEHYDROGENASE,[1],188.33 u/L
same,LIPASE,[1],9.5 u/L
same,PHOSPHORUS,[1],11.95 mg/dL
same,POTASSIUM,[1],5.99 MEQ/L
same,SODIUM,[1],144.43 MEQ/L
same,TOTAL BILIRUBIN,[1],0.15 mg/dL
same,TOTAL PROTEIN,[1],5.95 G/DL
same,URIC ACID,[1],1.82 mg/dL
same,ABSOLUTE BASOPHIL,[2],0 CELLS/uL
same,ABSOLUTE EOSINOPHIL,[2],26.67 CELLS/uL
same,ABSOLUTE LYMPHOCYTE,[2],7583.83 CELLS/uL
same,ABSOLUTE MONOCYTE,[2],131.33 CELLS/uL
same,ABSOLUTE SEGMENTED NEUTROPHIL,[2],674.83 CELLS/uL
same,BASOPHIL,[2],0%
same,EOSINOPHIL,[2],0.33%
same,ERYTHROCYTE COUNT,[2],5.78 x10E6/uL
same,HEMATOCRIT,[2],36.48%
same,HEMOGLOBIN,[2],14.03 G/DL
same,LEUKOCYTE COUNT,[2],8.42 x10E3/uL
same,LYMPHOCYTE,[2],89.83%
same,MEAN CORPUSCULAR HEMOGLOBIN,[2],24.3 pg
same,MEAN CORPUSCULAR HEMOGLOBIN CONCENTRATION,[2],38.52 G/DL
same,MEAN CORPUSCULAR VOLUME,[2],63.15 fL
same,MONOCYTE,[2],1.67%
same,NEUTROPHIL,[2],8.17%
same,NUCLEATED RED BLOOD CELLS,[2],0 /100WBC
same,PLATELET COUNT,[2],1186.67 x10E3/uL
same,ALANINE AMINOTRANSFERASE,[2],50.17 u/L
same,ALBUMIN,[2],4.07 G/DL
same,ALKALINE PHOSPHATASE,[2],367.5 u/L
same,ASPARTATE AMINOTRANSFERASE,[2],81.67 u/L
same,BLOOD UREA NITROGEN,[2],16.17 mg/dL
same,CARBON DIOXIDE,[2],32.33 mmol/L
same,CHLORIDE,[2],101.5 MEQ/L
same,CHOLESTEROL,[2],65.33 mg/dL
same,CREATINE PHOSPHOKINASE,[2],255.33 u/L
same,CREATININE,[2],0.17 mg/dL
same,GLUCOSE,[2],139.33 mg/dL
same,LACTATE DEHYDROGENASE,[2],95 u/L
same,LIPASE,[2],10.5 u/L
same,PHOSPHORUS,[2],10.38 mg/dL
same,POTASSIUM,[2],6.11 MEQ/L
same,SODIUM,[2],145.55 MEQ/L
same,TOTAL BILIRUBIN,[2],0.17 mg/dL
same,TOTAL PROTEIN,[2],5.98 G/DL
same,URIC ACID,[2],0.93 mg/dL
same,ABSOLUTE BASOPHIL,[3],0 CELLS/uL
same,ABSOLUTE EOSINOPHIL,[3],59.33 CELLS/uL
same,ABSOLUTE LYMPHOCYTE,[3],15201.67 CELLS/uL
same,ABSOLUTE MONOCYTE,[3],170 CELLS/uL
same,ABSOLUTE SEGMENTED NEUTROPHIL,[3],1569 CELLS/uL
same,BASOPHIL,[3],0%
same,EOSINOPHIL,[3],0.33%
same,ERYTHROCYTE COUNT,[3],5.47 x10E6/uL
same,HEMATOCRIT,[3],35.2%
same,HEMOGLOBIN,[3],13.83 G/DL
same,LEUKOCYTE COUNT,[3],17 x10E3/uL
same,LYMPHOCYTE,[3],88.67%
same,MEAN CORPUSCULAR HEMOGLOBIN,[3],25.3 pg
same,MEAN CORPUSCULAR HEMOGLOBIN CONCENTRATION,[3],39.3 G/DL
same,MEAN CORPUSCULAR VOLUME,[3],64.4 fL
same,MONOCYTE,[3],1%
same,NEUTROPHIL,[3],10%
same,NUCLEATED RED BLOOD CELLS,[3],0 /100WBC
same,PLATELET COUNT,[3],1236.33 x10E3/uL
same,ALANINE AMINOTRANSFERASE,[3],54.33 u/L
same,ALBUMIN,[3],3.9 G/DL
same,ALKALINE PHOSPHATASE,[3],296.67 u/L
same,ASPARTATE AMINOTRANSFERASE,[3],72 u/L
same,BLOOD UREA NITROGEN,[3],13.67 mg/dL
same,CARBON DIOXIDE,[3],28.33 mmol/L
same,CHLORIDE,[3],100.67 MEQ/L
same,CHOLESTEROL,[3],65 mg/dL
same,CREATINE PHOSPHOKINASE,[3],186.33 u/L
same,CREATININE,[3],0.12 mg/dL
same,GLUCOSE,[3],155.67 mg/dL
same,LACTATE DEHYDROGENASE,[3],82.33 u/L
same,LIPASE,[3],9.33 u/L
same,PHOSPHORUS,[3],12.27 mg/dL
same,POTASSIUM,[3],6.41 MEQ/L
same,SODIUM,[3],142.37 MEQ/L
same,TOTAL BILIRUBIN,[3],0.17 mg/dL
same,TOTAL PROTEIN,[3],5.6 G/DL
same,URIC ACID,[3],1.5 mg/dL
